Results on three compounds are retold here after paper PMC8054307 (The Journal of pharmacy and pharmacology, 2018).

For series [1], the system named is human α1 acidic glycoprotein (AGP). Briefly: Protein binding by ultrafiltration, AGP. Format: in vitro ADME. As to conditions: 45 μM AGP, CdG 500 ng/ml.
The conditions of series [2]: 2 days after administration; another study of the authors, ref not given; cited from earlier work.
A short description of series [3]: Tissue distribution of CdG to liver and kidney in rats. In kind it is in vivo, Male Sprague-Dawley rats. As to conditions: 9 h after i.v. or p.o. 1 mg/kg.
Series [4] in a line: Pharmacokinetic study of CdG and ETV oral co-administration in rats. As to conditions: male, Sprague-Dawley, rat, plasma, 1 mg/kg. In kind it is in vivo.
Another series deals with ETV-resistant HBV. As to conditions: oral 0.02 mg/kg/day, hu-liver-chimeric mice; cited from earlier work.
The subject of series [5] is wild-type HBV. As to conditions: read-out: half-maximal inhibitory concentration (IC50); cited from earlier work.
Series [6] is described as follows: Protein binding by ultrafiltration, human plasma. In kind it is in vitro ADME. As to conditions: pooled human plasma.
A short description of series [7]: Pharmacokinetic study of CdG in rats after i.v. and p.o. administration. In kind it is in vivo, Male Sprague-Dawley rats. As to conditions: 1 mg/kg; for half-life: t1/2, rats.
Series [8] has as its system wild-type HBV. As to conditions: oral 0.02 mg/kg/day, hu-liver-chimeric mice; cited from earlier work.
Series [9] is described as follows: Urinary excretion of CdG in rats. Format: in vivo, Male Sprague-Dawley rats. As to conditions: for amount of unchanged CdG accumulated in urine: 9 h after administration.
Series [10] deals with human serum albumin (HSA) (Homo sapiens, UniProt P02768). Briefly: Protein binding by ultrafiltration, HSA. In kind it is in vitro ADME. As to conditions: 600 μM HSA, CdG 500 ng/ml.
human serum albumin (HSA), sequence (P02768 25-609): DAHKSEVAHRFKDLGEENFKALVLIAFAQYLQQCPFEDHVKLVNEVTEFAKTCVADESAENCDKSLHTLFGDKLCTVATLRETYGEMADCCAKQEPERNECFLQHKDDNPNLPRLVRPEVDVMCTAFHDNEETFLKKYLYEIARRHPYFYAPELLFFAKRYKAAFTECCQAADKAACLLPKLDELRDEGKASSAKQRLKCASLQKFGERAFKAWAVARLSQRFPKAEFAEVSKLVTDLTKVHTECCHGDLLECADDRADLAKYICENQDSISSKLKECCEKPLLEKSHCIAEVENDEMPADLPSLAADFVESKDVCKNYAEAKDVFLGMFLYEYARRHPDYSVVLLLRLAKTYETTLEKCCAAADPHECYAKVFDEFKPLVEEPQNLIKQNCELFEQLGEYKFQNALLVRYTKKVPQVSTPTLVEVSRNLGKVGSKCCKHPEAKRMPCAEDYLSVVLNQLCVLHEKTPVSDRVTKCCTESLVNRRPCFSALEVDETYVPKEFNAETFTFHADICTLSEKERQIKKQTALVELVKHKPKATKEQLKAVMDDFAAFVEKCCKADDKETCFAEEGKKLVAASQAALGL
For series [11], the system named is cytochrome P450 (CYP450) enzyme system. Briefly: Metabolism by CYP450. In kind it is in vitro ADME. As to conditions: data not shown.
The conditions of series [12]: rat, in vivo, po; cited from earlier work.
Series [13] relates to cytochrome P450 (CYP450) enzyme system. As to conditions: cited from earlier work.
Setting [14] is: male, Sprague-Dawley, rat, plasma, iv.
[15] abbreviates: male, Sprague-Dawley, rat, plasma, po.

Entries after “also recorded” stand apart in the source; their conditions may differ.

By Tmax is commonly meant the time from dosing to the highest level. As a reminder, the fraction unbound is free concentration divided by total concentration. Read a high fraction unbound as weak binding. By AUC is commonly meant concentration integrated over time. The term MRT denotes a mean duration of stay, worked out from the concentration-time curve. By half-life is commonly meant the time in which the quantity being followed falls by half. Low values mean rapid decline, high ones slow decline. As usually defined, the CL/F is the apparent clearance, not corrected for the fraction that reaches the circulation. The Cmax is the maximum level reached in the sampled fluid or tissue. For `N#C[C@]1(CO)O[C@@H](n2cnc3c(=O)[nH]c(N)nc32)C[C@@H]1O` [CdG, 4′-cyano-2′-deoxyguanosine], the “binding rate to AGP” value in series [1] is “about 13.5 ± 0.01%”. Further, the “amount accumulated in the urine, % of the given dose” value in series [2] is on record as “about 40%”. The “distribution to liver vs kidney” value in [3] is given as “higher levels of CdG were distributed to the liver than the kidney; also recorded: distributed to the liver rather than kidney”. In addition, the Tmax in series [4] turned out to be 45 min. For the same compound, the “replication of ETV-resistant HBV” value in the series on ETV-resistant HBV is given as “significantly blocked”. For the same compound, the IC50 in the series with wild-type HBV [5] was 400 pM. Also, the fraction unbound at 500 ng/ml in series [6] was roughly 0.393. In [7] (setting [14]), this compound showed an AUC of 123 ± 28.1 ng·h/mL, an MRT of 29.4 ± 3.6 min, a Vd of 4.08 ± 0.62 L/kg and a clearance of 141 mL/min/kg. Besides, the half-life in series [7] (setting [14]) was 30 min. In series [7] (setting [15]), this compound had an area under the curve (AUC) of 90.1 ± 5.75 ng·h/mL, a CL/F of 185 mL/min/kg, a Cmax of 53.8 ± 8.63 ng/mL and an MRT of 82.8 ± 7.2 min. For the same compound, the Tmax in series [7] (setting [15]) came to 45 min. This compound had a half-life in [7] (male, Sprague-Dawley, rat, plasma, po, CdG alone) of 42 min. Also, in [7] (rats, i.v. and p.o.), the “time to reach undetectable plasma levels after administration” value is given as no more than 9 h. Moreover, in series [7] (rats, p.o., CdG alone), the t1/2 came out at 43.8 ± 7.2 min. The “replication of wild-type HBV” value with wild-type HBV [8] is “significantly blocked”. The “form excreted into the urine” value in [9] (LC/MS chromatographic profile of urine) was “unchanged form”. Moreover, the “urinary excretion, % of the given dose” value in [9] (i.v. 1 mg/kg, 9 h) was found to be 45%. Also, the “amount of unchanged CdG accumulated in urine” value in series [9] (i.v. 1 mg/kg) is given as “about 113 μg”. Moreover, the “amount of unchanged CdG accumulated in urine” value in series [9] (p.o. 1 mg/kg) was roughly 49 µg. Also, the “binding rate to HSA” value in series [10] is “about 11.6 ± 0.01%”. Also, the “metabolism by CYP450” value in series [11] is listed as “rarely metabolized by CYP450”.

As to `C=C1[C@H](CO)[C@@H](O)C[C@@H]1n1cnc2c(=O)[nH]c(N)nc21` [ETV, entecavir], the bioavailability result in [12] is “approximately 78%”. Moreover, the “substrate for the CYP450 enzyme system” value in [13] is on record as “not a substrate”.

With `CC(C)(C)C(=O)OCOP(=O)(COCCn1cnc2c(N)ncnc21)OCOC(=O)C(C)(C)C` [adefovir dipivoxil], the bioavailability entry in [12] is reported as “approximately 50%”.
